In PubChem BioAssay (NCI):
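Test compounds were applied to cells in 96-well plates for 48 hours at 5 doses. Abbreviation: GI50, concentration required for 50% inhibition of growth. TGI marks complete inhibition of growth.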

Each compound was assayed on SW-620 colon (assay: NCI anticancer screen, dose series, 48 h).
`Nc1nc(Nc2ccccc2)sc1C(=O)c1c[nH]c2ccccc12` was tested, and the TGI was 31.2 µM.
Work on `COc1c(O)c(O)cc2c1-c1ccc(OC)c(=O)cc1C(NC(C)=O)CC2` (stereo not given) yielded a TGI of 63.3 µM.
`Cn1ccnc1Sc1ccc(C=Nc2ccc3nc(SCC(=O)NC4CCCCC4)sc3c2)cc1[N+](=O)[O-]` was tested, and the TGI was over 100 µM.
In the case of `N#CCCN(CCC#N)c1ccc(/C=C2\SC(=S)NC2=O)cc1Br`, the TGI is reported as over 100 µM.
For `C=C1C(=O)OC2/C=C(/C)C3(O)OC(C)(CC(OC(=O)C(C)C)C12)CC3OC(C)=O` (stereo not given), the TGI was over 45.1 µM.
`O=C(O)c1ccc2c(c1)CC1(C2)Cc2cc3c(cc2C1=O)CCC3` (stereo not given) was tested, and the TGI was over 100 µM.
`CC1C(c2ccc3c(c2)OCO3)c2cc3c(cc2OC1N1CCOCC1)OCO3` (stereo not given) was tested, and the TGI was over 100 µM.
Compound `OC1(c2ccc(Cl)cc2)c2ccc(CN3CCCC3)cc2C2=NCCN21` (stereo not given) has a TGI of 26.5 µM.
`O=c1n(Cc2ccccc2)c(=O)n2c(=O)n(Cc3ccccc3)c(=O)n12` was tested, and the TGI was over 100 µM.
With `Cc1ccc(S(=O)(=O)NC(=O)NNc2ccc(F)cc2)cc1` the TGI was over 100 µM.
Work on `CCN(CC)CCNc1ccc2ncn3c4cc(OC)c(OC)c(=O)c4c(O)c1c23` yielded a TGI of 16.5 µM.
With `NS(=O)(=O)c1ccc(NC(NC(=O)C(C(F)(F)F)C(F)(F)F)(C(F)(F)F)C(F)(F)F)cc1` the TGI was over 100 µM.
Work on `CCc1nc2cc3cccnc3c(Cl)c2[nH]c1=O` yielded a TGI of over 100 µM.
`CC(C)(C)C(=O)C(Cc1ccccc1)C(=O)C(C)(C)C` showed a TGI of over 100 µM.
For `COc1ccc(-c2csc(NC(=O)CSc3nc(C)c(-c4ccccc4)n3Nc3ccccc3)n2)cc1`, the GI50 was 51.9 µM and the TGI was over 100 µM.
With `Clc1ccc(Cl)c(SCCCN2CCNCC2)c1` the TGI was 56.7 µM.
Work on `O=C1CCc2ccc3c(c21)CC1(Cc2ccccc2C1)C3` yielded a TGI of over 100 µM.

What follows are compounds tested on LOX IMVI melanoma (assay: NCI anticancer screen, dose series, 48 h).
Compound `Nc1nc(Nc2ccccc2)sc1C(=O)c1c[nH]c2ccccc12` has a TGI of 64.8 µM.
For `COc1c(O)c(O)cc2c1-c1ccc(OC)c(=O)cc1C(NC(C)=O)CC2` (stereo not given), the TGI was 20.6 µM.
`Cn1ccnc1Sc1ccc(C=Nc2ccc3nc(SCC(=O)NC4CCCCC4)sc3c2)cc1[N+](=O)[O-]` was tested, and the TGI was over 100 µM.
In the case of `N#CCCN(CCC#N)c1ccc(/C=C2\SC(=S)NC2=O)cc1Br`, the TGI is reported as 80.7 µM.
Compound `C=C1C(=O)OC2/C=C(/C)C3(O)OC(C)(CC(OC(=O)C(C)C)C12)CC3OC(C)=O` (stereo not given) has a TGI of over 68.8 µM.
Compound `O=C(O)c1ccc2c(c1)CC1(C2)Cc2cc3c(cc2C1=O)CCC3` (stereo not given) has a TGI of over 100 µM.
In the case of `CC1C(c2ccc3c(c2)OCO3)c2cc3c(cc2OC1N1CCOCC1)OCO3` (stereo not given), the TGI is reported as 60.2 µM.
`OC1(c2ccc(Cl)cc2)c2ccc(CN3CCCC3)cc2C2=NCCN21` (stereo not given) was tested, and the TGI was 29.1 µM.
`O=c1n(Cc2ccccc2)c(=O)n2c(=O)n(Cc3ccccc3)c(=O)n12` gave a TGI of over 100 µM.
`Cc1ccc(S(=O)(=O)NC(=O)NNc2ccc(F)cc2)cc1` gave a TGI of over 100 µM.
In the case of `CCN(CC)CCNc1ccc2ncn3c4cc(OC)c(OC)c(=O)c4c(O)c1c23`, the TGI is reported as 2.74 µM.
For `NS(=O)(=O)c1ccc(NC(NC(=O)C(C(F)(F)F)C(F)(F)F)(C(F)(F)F)C(F)(F)F)cc1`, the TGI was over 100 µM.
For `CCc1nc2cc3cccnc3c(Cl)c2[nH]c1=O`, the TGI was over 100 µM.
Work on `CC(C)(C)C(=O)C(Cc1ccccc1)C(=O)C(C)(C)C` yielded a TGI of over 100 µM.
`COc1ccc(-c2csc(NC(=O)CSc3nc(C)c(-c4ccccc4)n3Nc3ccccc3)n2)cc1` gave a GI50 of 5.85 µM and a TGI of over 100 µM.
For `Clc1ccc(Cl)c(SCCCN2CCNCC2)c1`, the TGI was 35.8 µM.
With `O=C1CCc2ccc3c(c21)CC1(Cc2ccccc2C1)C3` the TGI was 20.1 µM.

What follows are compounds tested on SK-MEL-5 melanoma (assay: NCI anticancer screen, dose series, 48 h).
`Nc1nc(Nc2ccccc2)sc1C(=O)c1c[nH]c2ccccc12` gave a TGI of 25.1 µM.
With `COc1c(O)c(O)cc2c1-c1ccc(OC)c(=O)cc1C(NC(C)=O)CC2` (stereo not given) the TGI was 11.3 µM.
With `Cn1ccnc1Sc1ccc(C=Nc2ccc3nc(SCC(=O)NC4CCCCC4)sc3c2)cc1[N+](=O)[O-]` the TGI was over 100 µM.
`N#CCCN(CCC#N)c1ccc(/C=C2\SC(=S)NC2=O)cc1Br` was tested, and the TGI was over 100 µM.
Work on `C=C1C(=O)OC2/C=C(/C)C3(O)OC(C)(CC(OC(=O)C(C)C)C12)CC3OC(C)=O` (stereo not given) yielded a TGI of 23.8 µM.
`O=C(O)c1ccc2c(c1)CC1(C2)Cc2cc3c(cc2C1=O)CCC3` (stereo not given) was tested, and the TGI was over 100 µM.
Work on `CC1C(c2ccc3c(c2)OCO3)c2cc3c(cc2OC1N1CCOCC1)OCO3` (stereo not given) yielded a TGI of 42.7 µM.
Work on `OC1(c2ccc(Cl)cc2)c2ccc(CN3CCCC3)cc2C2=NCCN21` (stereo not given) yielded a TGI of 22.3 µM.
In the case of `O=c1n(Cc2ccccc2)c(=O)n2c(=O)n(Cc3ccccc3)c(=O)n12`, the TGI is reported as over 100 µM.
